Experimental data taken from PMC5786306, “An AKAP-Lbc-RhoA interaction inhibitor promotes the translocation of aquaporin-2 to the plasma membrane of renal collecting duct principal cells” (PLoS ONE, 2018).
Entries after “also recorded” stand apart in the source; their conditions may differ.

What was measured:
[1] = biological target: T1, AKAP-Lbc/DHPH-induced RhoA activation (Homo sapiens, UniProt P61586); assay: Guanine nucleotide exchange (GEF) assay with mant-GTP (screen and secondary assays); format: biochemical
T1 construct: AKAP-Lbc/DHPH (aa 1923–2336 of human AKAP-Lbc; NP_006729.4, NCBI); made in house; host or cells: E. coli Rosetta (DE3)
T1 sequence (P61586 whole entry, the tested form may be a part): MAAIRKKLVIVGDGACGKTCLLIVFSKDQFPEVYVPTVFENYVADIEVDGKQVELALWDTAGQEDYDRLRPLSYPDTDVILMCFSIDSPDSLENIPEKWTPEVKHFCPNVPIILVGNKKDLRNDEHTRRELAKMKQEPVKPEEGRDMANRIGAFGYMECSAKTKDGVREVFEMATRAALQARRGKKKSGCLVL
Method: Fluorescence was recorded for 15 min in a 384-well plate in a microplate reader (Tecan, Safire; Durham, US) at 440 nm (360 nm excitation wavelength).
For all dispensing and washing steps an EL406 washer/dispenser combination (BioTek Instruments, Bad Friedrichshall, Germany) was used. The screen was performed in a 384-well plate format. […] Z score describes the distance of a sample signal to the mean of all other samples on the plate in units of standard deviation. […] Compound identity and purity of samples used in this secondary screen were validated by mass spectrometric analysis.
The DHPH domain of the RhoA-specific guanine nucleotide exchange factor (GEF) AKAP-Lbc and RhoA were generated as recombinant proteins. The DHPH domain-catalyzed exchange of GDP for the fluorescent mant-GTP was monitored at the emission wavelength of RhoA-bound mant-GTP at 440 nm. (B) The fluorescence signal intensity changes were determined for all samples including positive and negative controls and percent inhibitions calculated based on the controls.

[2] = test system: AKAP-Lbc-mediated activation of RhoA in HEK293 cells; assay: SRE luciferase reporter assay, AKAP-Lbc expressed; format: cell-based, human; conditions: Scaff10
Method: (§1) Luciferase reporter gene assays were performed with the Dual Luciferase Reporter Assay System (Promega) according to manufactures protocol and as previously reported. In brief, HEK293 cells were seeded and co-transfected with the indicated plasmids together with pSRE.L reporter plasmid encoding firefly luciferase (kindly provided from Dr J. Mao and Dr. D. Wu, Rochester, NY) and pRL-TK control vector (Promega, Mannheim, Germany) encoding renilla luciferase. The transfected cells were further cultured in DMEM with 0.5% FCS for 24 h, lysed with passive lysis buffer (Promega). Luciferase activities was measured an Envision Instrument (Perkin Elmer, Rodgau, Germany) in white 96-well plates. […] In Western blots, the protein was detected with primary polyclonal antibody (rabbit; Gramsch, 1:1000). […] AKAP-Lbc was detected with a specific anti-AKAP-Lbc antibody (Abcam; #ab99377; 1:1000). […]
(§2) Fig 7 Scaff10-8 inhibits the AKAP-Lbc-mediated activation of RhoA in cells. […] Statistically significant differences were determined applying one-way ANOVA with posthoc Bonferroni. […]
(§3) in luciferase activity induced by other GEFs. n=3; statistically significant differences were not found, as confirmed by statistical analysis using ANOVA. […] The fraction of active RhoA was determined using Rhotekin pulldown assays as described. […]

[3] = test system: RhoA activation by other RhoGEFs (p63RhoGEF, Duet, Trio, LARG, Ost1, PDZRhoGEF and others) in HEK293 cells; assay: SRE luciferase reporter assay, other RhoGEFs expressed; format: cell-based, human; conditions: Scaff10 50 μM
Method: as §1, §2, §3

[4] = test system: AQP2 insertion into the plasma membrane of IMCD cells; assay: Biotinylation of cell surface proteins; format: cell-based, rat; conditions: Scaff10-8 30 μM, 1 or 24 h, forskolin 30 μM, 30 min
Method: The assay was performed according to Bogum et al.. IMCD cells were treated with Scaff10-8 at a concentration of 30 μM for 1 or 24 h (0.3% DMSO final concentration). DMSO (0.3%) was used as a control for the 24 h of incubation. Cells were stimulated with forskolin (30 min, 30 μM). Cells were washed twice with ice-cold PBS and incubated with biotinylation buffer (500 μg Biotin per well; 10 mM triethanolamine; 150 mM NaCl; 1 mM MgCl2; 0.1 mM CaCl2; pH 8.0) for 60 min at 4°C. After two washing steps with biotinylation buffer, cells were incubated for 10 min with quenching buffer (50 mM NH4Cl in PBS) at 4°C. Lysates were prepared using biotinylation lysis buffer 1 (SLB; 0.5% Triton X-100; 0.2% BSA; Complete mini EDTA-free). Lysates were sonicated and incubated for 20 min at 37°C. Cell debris was removed by centrifugation (30 min, 15,000x g, 4°C). Lysates were incubated with 80 μl streptavidin agarose beads at 4°C overnight. Beads were washed three times with biotinylation lysis buffer 1 and 2 (SLB; 0.5% Triton X-100; Complete mini EDTA-free). Proteins were eluted using sample buffer and analyzed by Western blotting.
(A) IMCD cells were treated with either compound (30 μM) or DMSO for 1 or 24 h. Membrane proteins were biotinylated followed by precipitation with streptavidin agarose beads. […] (B) Signals from A were quantified by densitometric analysis. […]

`COc1ccc(-c2coc3cc4oc(=O)c(C)c(C)c4cc23)cc1` [Scaff10, 3-(4-Methoxyphenyl)-5,6-dimethyl-furo[3,2-g]chromen-7-one] showed an IC50 [1] of 26 µM, a ResidualPercentActivity ([1]; Suppl. Tab. 2, screening data) of -9.0% and a z_score ([1]; Suppl. Tab. 2, screening data) of -9.0. The “AKAP-Lbc-mediated activation of RhoA (SRE luciferase activity)” value [2] was “selectively inhibited; also recorded: concentration-dependently inhibits” and the “luciferase activity induced by other GEFs” value [3] was “does not affect”.
In the case of `COc1ccc(-c2coc3cc4oc(=O)c(CCC(=O)O)c(C)c4cc23)cc1` [Scaff10-8, 3-[3-(4-Methoxyphenyl)-5-methyl-7-oxo-furo[3,2-g]chromen-6-yl] propanoic acid], the “insertion of AQP2 into the plasma membrane” value [4] is reported as “does not promote the insertion of AQP2”.
